Measurements published in patent US20230270114A1, “FUNGICIDAL COMPOSITIONS” (SYNGENTA CROP PROTECTION AG, priority 2020, published 2023).
Like-named read-outs stand apart in the source and are kept apart here.

Legend:
Alternaria solani = assay: Example A1: Alternaria solani / tomato / leaf disc (early blight); type: in vivo; conditions: foliar, tomato leaf disks inoculated 2 days after application, compared to untreated control
[1] = system: Botryotinia fuckeliana (Botrytis cinerea); assay: Example A2: Botryotinia fuckeliana (Botrytis cinerea) / liquid culture (gray mould); type: cell-based; conditions: read-out: control of Botryotinia fuckeliana
Source text: Example A2: Botryotinia Fuckeliana (Botrytis Cinerea) / Liquid Culture (Gray Mould) Conidia of the fungus from cryogenic storage are directly mixed into nutrient broth (Vogels broth). […] […].38.

[2] = system: Glomerella lagenarium (Colletotrichum lagenarium); assay: Example A3: Glomerella lagenarium (Colletotrichum lagenarium) / liquid culture (anthracnose); type: cell-based; conditions: Colletotrichum orbiculare; read-out: control of Glomerella lagenarium
[3] = system: Monographella nivalis (Microdochium nivale); assay: Example A6: Monographella nivalis (Microdochium nivale) / liquid culture (foot rot cereals); type: cell-based; conditions: read-out: control of Monographella nivalis
Phakopsora pachyrhizi = assay: Example A8: Phakopsora pachyrhizi / soybean / preventative (soybean rust); type: in vivo; conditions: foliar, soybean leaf disks preventative, inoculated one day after application, compared to untreated control
[4] = system: Puccinia recondita f. sp. tritici; type: in vivo; conditions: foliar, 24 h, wheat leaf disc curative, applied 1 day after inoculation, compared to untreated control
[5] = system: Puccinia recondita f. sp. tritici; type: in vivo; conditions: foliar, wheat leaf disc preventative, inoculated 1 day after application, compared to untreated control
[6] = system: Magnaporthe grisea (Pyricularia oryzae); assay: whole plant or invertebrate; type: in vivo; conditions: foliar, read-out: control of Magnaporthe grisea
Pyrenophora teres = assay: Example A12: Pyrenophora teres / barley / leaf disc preventative (net blotch); type: in vivo; conditions: foliar, inoculated 2 days after application, compared to untreated control
[7] = system: Mycosphaerella graminicola (Septoria tritici); assay: Example A14: Mycosphaerella graminicola (Septoria tritici) / liquid culture (Septoria blotch); type: cell-based; conditions: Zymoseptoria tritici; read-out: control of Mycosphaerella graminicola
[8] = system: Mycosphaerella arachidis (Cercospora arachidicola); assay: Example A7: Mycosphaerella arachidis (Cercospora arachidicola) / liquid culture (early leaf spot); type: cell-based; conditions: read-out: control of Mycosphaerella arachidis

CCOCC(=O)N(c1cc(F)nc(F)c1)c1nc(C(=O)NC2CCC2(C)C)c(C)s1 (stereo not drawn) [X.15, 2-[(2,6-difluoro-4-pyridyl)-(2-ethoxyacetyl)amino]-N-(2,2-dimethylcyclobutyl)-5-methyl-thiazole-4-carboxamide]
pest or weed control at 200 ppm (Alternaria solani): ≥ 80%
inhibition of growth at 20 ppm [1]: ≥ 70%
inhibition of growth at 20 ppm [2]: ≥ 80%
inhibition of growth at 20 ppm [3]: ≥ 80%
pest or weed control at 200 ppm (Phakopsora pachyrhizi): ≥ 80%
pest or weed control at 200 ppm [4]: ≥ 80%
pest or weed control at 200 ppm [5]: ≥ 80%
pest or weed control at 200 ppm [6]: ≥ 80%
pest or weed control at 200 ppm (Pyrenophora teres): ≥ 80%
inhibition of growth at 20 ppm [7]: ≥ 80%

Cc1sc(N(C(=O)c2ccccc2)c2cc(F)nc(F)c2)nc1C(=O)NC1CCC1(C)C (stereo not drawn) [X.35, 2-[benzoyl-(2,6-difluoro-4-pyridyl)amino]-N-(2,2-dimethylcyclobutyl)-5-methylthiazole-4-carboxamide]
pest or weed control at 200 ppm (Alternaria solani): ≥ 80%
inhibition of growth at 20 ppm [1]: ≥ 70%
inhibition of growth at 20 ppm [2]: ≥ 80%
inhibition of growth at 20 ppm [3]: ≥ 80%
pest or weed control at 200 ppm (Phakopsora pachyrhizi): ≥ 80%
pest or weed control at 200 ppm [5]: ≥ 80%
pest or weed control at 200 ppm [6]: ≥ 80%
pest or weed control at 200 ppm (Pyrenophora teres): ≥ 80%

CCOC(=O)C(=O)N(c1cc(F)nc(F)c1)c1nc(C(=O)NC2CCC2(C)C)c(C)s1 (stereo not drawn) [X.34, ethyl 2-[(2,6-difluoro-4-pyridyl)-[4-[(2,2-dimethylcyclobutyl)carbamoyl]-5-methyl-thiazol-2-yl]amino]-2-oxo-acetate]
pest or weed control at 200 ppm (Alternaria solani): ≥ 80%
inhibition of growth at 20 ppm [1]: ≥ 70%
inhibition of growth at 20 ppm [2]: ≥ 80%
inhibition of growth at 20 ppm [3]: ≥ 80%
inhibition of growth at 20 ppm [8]: ≥ 80%
pest or weed control at 200 ppm (Phakopsora pachyrhizi): ≥ 80%
pest or weed control at 200 ppm [4]: ≥ 80%
pest or weed control at 200 ppm [5]: ≥ 80%
pest or weed control at 200 ppm [6]: ≥ 80%
pest or weed control at 200 ppm (Pyrenophora teres): ≥ 80%
inhibition of growth at 20 ppm [7]: ≥ 80%

Cc1sc(N(C=O)c2cc(F)nc(F)c2)nc1C(=O)NC1CCC1(C)C (stereo not drawn) [X.33, 2-[(2,6-difluoro-4-pyridyl)-formyl-amino]-N-(2,2-dimethylcyclobutyl)-5-methylthiazole-4-carboxamide]
pest or weed control at 200 ppm (Alternaria solani): ≥ 80%
inhibition of growth at 20 ppm [1]: ≥ 70%
inhibition of growth at 20 ppm [2]: ≥ 80%
inhibition of growth at 20 ppm [3]: ≥ 80%
inhibition of growth at 20 ppm [8]: ≥ 80%
pest or weed control at 200 ppm (Phakopsora pachyrhizi): ≥ 80%
pest or weed control at 200 ppm [4]: ≥ 80%
pest or weed control at 200 ppm [5]: ≥ 80%
pest or weed control at 200 ppm [6]: ≥ 80%
pest or weed control at 200 ppm (Pyrenophora teres): ≥ 80%
inhibition of growth at 20 ppm [7]: ≥ 80%

Cc1sc(N(C(=O)C(C)C)c2cc(F)nc(F)c2)nc1C(=O)NC1CCC1(C)C (stereo not drawn) [X.38, 2-[(2,6-difluoro-4-pyridyl)-(2-methylpropanoyl)amino]-N-(2,2-dimethylcyclobutyl)-5-methyl-thiazole-4-carboxamide]
pest or weed control at 200 ppm (Alternaria solani): ≥ 80%
inhibition of growth at 20 ppm [1]: ≥ 70%
inhibition of growth at 20 ppm [2]: ≥ 80%
inhibition of growth at 20 ppm [3]: ≥ 80%
pest or weed control at 200 ppm (Phakopsora pachyrhizi): ≥ 80%
pest or weed control at 200 ppm [4]: ≥ 80%
pest or weed control at 200 ppm [5]: ≥ 80%
pest or weed control at 200 ppm [6]: ≥ 80%
pest or weed control at 200 ppm (Pyrenophora teres): ≥ 80%
melting point: 123 to 126 °C

COCC(=O)N(c1cc(F)nc(F)c1)c1nc(C(=O)NC2CCC2(C)C)c(C)s1 (stereo not drawn) [X.29, 2-[(2,6-difluoro-4-pyridyl)-(2-methoxyacetyl)amino]-N-(2,2-dimethylcyclobutyl)-5-methyl-thiazole-4-carboxamide]
pest or weed control at 200 ppm (Alternaria solani): ≥ 80%
inhibition of growth at 20 ppm [1]: ≥ 70%
inhibition of growth at 20 ppm [2]: ≥ 80%
inhibition of growth at 20 ppm [3]: ≥ 80%
inhibition of growth at 20 ppm [8]: ≥ 80%
pest or weed control at 200 ppm (Phakopsora pachyrhizi): ≥ 80%
pest or weed control at 200 ppm [4]: ≥ 80%
pest or weed control at 200 ppm [5]: ≥ 80%
pest or weed control at 200 ppm [6]: ≥ 80%
pest or weed control at 200 ppm (Pyrenophora teres): ≥ 80%
inhibition of growth at 20 ppm [7]: ≥ 80%

CC(=O)OCC(=O)N(c1cc(F)nc(F)c1)c1nc(C(=O)NC2CCC2(C)C)c(C)s1 (stereo not drawn) [X.08, [2-[(2,6-difluoro-4-pyridyl)-[4-[(2,2-dimethylcyclobutyl)carbamoyl]-5-methyl-thiazol-2-yl]amino]-2-oxo-ethyl] acetate]
pest or weed control at 200 ppm (Alternaria solani): ≥ 80%
inhibition of growth at 20 ppm [2]: ≥ 80%
inhibition of growth at 20 ppm [3]: ≥ 80%
inhibition of growth at 20 ppm [8]: ≥ 80%
pest or weed control at 200 ppm (Phakopsora pachyrhizi): ≥ 80%
pest or weed control at 200 ppm [4]: ≥ 80%
pest or weed control at 200 ppm [5]: ≥ 80%
pest or weed control at 200 ppm [6]: ≥ 80%
pest or weed control at 200 ppm (Pyrenophora teres): ≥ 80%
inhibition of growth at 20 ppm [7]: ≥ 80%

Cc1sc(N(C(=O)CCl)c2cc(F)nc(F)c2)nc1C(=O)NC1CCC1(C)C (stereo not drawn) [X.17, 2-[(2-chloroacetyl)-(2,6-difluoro-4-pyridyl)amino]-N-(2,2-dimethylcyclobutyl)-5-methyl-thiazole-4-carboxamide]
pest or weed control at 200 ppm (Alternaria solani): ≥ 80%
inhibition of growth at 20 ppm [2]: ≥ 80%
inhibition of growth at 20 ppm [3]: ≥ 80%
inhibition of growth at 20 ppm [8]: ≥ 80%
pest or weed control at 200 ppm (Phakopsora pachyrhizi): ≥ 80%
pest or weed control at 200 ppm [4]: ≥ 80%
pest or weed control at 200 ppm [5]: ≥ 80%
pest or weed control at 200 ppm [6]: ≥ 80%
pest or weed control at 200 ppm (Pyrenophora teres): ≥ 80%
inhibition of growth at 20 ppm [7]: ≥ 80%

Cc1sc(N(C(=O)COCc2ccccc2)c2cc(F)nc(F)c2)nc1C(=O)NC1CCC1(C)C (stereo not drawn) [X.14, 2-[(2-benzyloxyacetyl)-(2,6-difluoro-4-pyridyl)amino]-N-(2,2-dimethylcyclobutyl)-5-methyl-thiazole-4-carboxamide]
pest or weed control at 200 ppm (Alternaria solani): ≥ 80%
inhibition of growth at 20 ppm [1]: ≥ 70%
inhibition of growth at 20 ppm [2]: ≥ 80%
inhibition of growth at 20 ppm [3]: ≥ 80%
pest or weed control at 200 ppm (Phakopsora pachyrhizi): ≥ 80%
pest or weed control at 200 ppm [4]: ≥ 80%
pest or weed control at 200 ppm [5]: ≥ 80%
pest or weed control at 200 ppm [6]: ≥ 80%
pest or weed control at 200 ppm (Pyrenophora teres): ≥ 80%
inhibition of growth at 20 ppm [7]: ≥ 80%

CC(=O)N(c1cc(F)nc(F)c1)c1nc(C(=O)NC2CCC2(C)C)c(C)s1 (stereo not drawn) [X.36, 2-[acetyl-(2,6-difluoro-4-pyridyl)amino]-N-(2,2-dimethylcyclobutyl)-5-methylthiazole-4-carboxamide]
pest or weed control at 200 ppm (Alternaria solani): ≥ 80%
inhibition of growth at 20 ppm [1]: ≥ 70%
inhibition of growth at 20 ppm [2]: ≥ 80%
inhibition of growth at 20 ppm [3]: ≥ 80%
pest or weed control at 200 ppm [5]: ≥ 80%
pest or weed control at 200 ppm [6]: ≥ 80%
pest or weed control at 200 ppm (Pyrenophora teres): ≥ 80%
inhibition of growth at 20 ppm [7]: ≥ 80%
